Laboratory results published in PMC4467156, “A new chemical inhibitor of angiogenesis and tumorigenesis that targets the VEGF signaling pathway upstream of Ras” (Oncotarget, 2015).

Test system: embryoid bodies derived from mouse embryonic stem cells
Assay: Vascular sprouting of embryoid bodies into collagen gels
Type: cell-based
Conditions: 12.5 μM COB223 added at day 6
Description: CJ7 cells (1000 cells/well; 12-well plates) were allowed to differentiate in collagen gels in Iscove's medium containing Glutamax (Iscove's modified Dulbecco's medium; Invitrogen) supplemented with 1.2 mg/mL collagen I (BD Biosciences, Bedford, MA), 15% fetal calf serum (Invitrogen), 450 μM monothioglycerol (Sigma-Aldrich), 10 μg/mL insulin (Roche Diagnostics, Basel, Switzerland), 50 U/mL penicillin and 50 μg/mL streptomycin (Invitrogen), as previously described. A cocktail of growth factors was also added containing 50 ng/mL human VEGF-A (AbCys) and 100 ng/mL human FGF-2 (a generous gift from Dr. A. Baird, Whittier Institute, La Jolla, CA). At day 6, molecules were added with a novel addition of 50 ng/mL human VEGF-A and 100 ng/mL human FGF-2. Differentiation was allowed during 11 days.
Collagen gels containing EBs were dehydrated and fixed in 4% paraformaldehyde during 15 min at room temperature. […] For quantitation of endothelial sprouting, images were captured with a digital camera and measurement of the total length of endothelial sprouts was achieved by morphometric analysis using ImageJ software.

SMILES: CN(C)c1cccc2c(S(=O)(=O)NCCCN3CCN(CCCNC(=O)OC(C)(C)C)CC3)cccc12 [COB223, tert-Butyl 3-(4-(3-(5-(dimethylamino)naphthalene-1-sulfonamido)propyl)piperazin-1-yl) propylcarbamate]
- endothelial sprouting (CD31 immunostaining): complete inhibition
